From patent US10227323B2, “Glucosylceramide synthase inhibitors for the treatment of diseases” (BIOMARIN PHARMACEUTICAL INC., priority 2013, dated 2019)

Molecular target: T1, GCS (Canis lupus familiaris, UniProt A0A8I3MXG6)
T1 sequence (A0A8I3MXG6 1-394): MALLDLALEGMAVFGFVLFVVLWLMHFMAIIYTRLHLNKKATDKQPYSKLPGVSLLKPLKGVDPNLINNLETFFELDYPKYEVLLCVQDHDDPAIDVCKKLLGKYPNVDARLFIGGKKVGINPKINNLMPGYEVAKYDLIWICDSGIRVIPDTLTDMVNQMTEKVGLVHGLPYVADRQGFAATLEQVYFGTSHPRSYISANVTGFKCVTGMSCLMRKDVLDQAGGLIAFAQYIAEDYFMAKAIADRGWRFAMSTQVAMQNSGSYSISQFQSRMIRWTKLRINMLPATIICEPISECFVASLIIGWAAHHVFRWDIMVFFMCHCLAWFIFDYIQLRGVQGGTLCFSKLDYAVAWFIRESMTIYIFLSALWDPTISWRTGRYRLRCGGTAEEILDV
Assay: Assay 1: GCS Enzymatic Assay (MDCK cell lysate, C6-NBD-Ceramide, LC/MS)
Format: biochemical, canine
Settings: Table 1, MDCK cell lysate; for IC50: read-out: IC50 (nM) generated from Assay 1; for % inhibition generated from Assay 1: values marked *
Summary of the method: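 LC/MS/MS measurement of glucosylceramide and NBD-ceramide after a 1 h, 37 °C reaction with 100 μM UDP-glucose and 10 μM C6-NBD-ceramide gave IC50s or percent inhibition.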

Structure (SMILES)	IC50 [nM]	% inhibition generated from Assay 1
O=C(N[C@H](CN1CCCC1)[C@H](O)c1ccc2c(c1)OCCO2)C(F)(F)C1Cc2ccc(-c3ccccn3)cc2C1 (stereo partly drawn) [Compound 50, N-((1R,2R)-1-(2,3-dihydrobenzo[b][1,4]dioxin-6-yl)-1-hydroxy-3-(pyrrolidin-1-yl)propan-2-yl)-2,2-difluoro-2-(5-(pyridin-2-yl)-2,3-dihydro-1H-inden-2-yl)acetamide]	< 50	
O=C(N[C@H](CN1CC2CCC1C2)[C@H](O)c1ccc2c(c1)OCCO2)C(F)(F)c1cc2cc(Cl)ccc2o1 (stereo partly drawn) [Compound 51, N-((1R,2R)-3-(2-azabicyclo[2.2.1]heptan-2-yl)-1-(2,3-dihydrobenzo[b][1,4]dioxin-6-yl)-1-hydroxypropan-2-yl)-2-(5-chlorobenzofuran-2-yl)-2,2-difluoroacetamide]	< 50	
O=C(N[C@H](CN1CCCC1)[C@H](O)c1ccc(OC2CC2)c(Cl)c1)C(F)(F)CCc1ccc2ccccc2c1 [Compound 52, N-((1R,2R)-1-(3-chloro-4-cyclopropoxyphenyl)-1-hydroxy-3-(pyrrolidin-1-yl)propan-2-yl)-2,2-difluoro-4-(naphthalen-2-yl)butanamide]	< 50	
O=C(N[C@H](CN1C2CCC1CC2)[C@H](O)c1ccc2c(c1)OCCO2)C(F)(F)c1cc2cc(Cl)ccc2o1 [Compound 53, N-((1R,2R)-3-(7-azabicyclo[2.2.1]heptan-7-yl)-1-(2,3-dihydrobenzo[b][1,4]dioxin-6-yl)-1-hydroxypropan-2-yl)-2-(5-chlorobenzofuran-2-yl)-2,2-difluoroacetamide]	< 50	
Cn1ncc2ccc([C@@H](O)[C@@H](CN3CCCC3)NC(=O)C(F)(F)c3cc4cc(Cl)ccc4o3)cc21 [Compound 54, 2-(5-chlorobenzofuran-2-yl)-2,2-difluoro-N-((1R,2R)-1-hydroxy-1-(1-methyl-1H-indazol-6-yl)-3-(pyrrolidin-1-yl)propan-2-yl)acetamide]		B* (the compound had a % inhibition of greater than or equal to about 3% but less than about 50%)
Cn1ncc2ccc([C@H](O)[C@@H](CN3CCCC3)NC(=O)C(F)(F)c3cc4cc(Cl)ccc4o3)cc21 [Compound 54G, 2-(5-chlorobenzofuran-2-yl)-2,2-difluoro-N-((1S,2R)-1-hydroxy-1-(1-methyl-1H-indazol-6-yl)-3-(pyrrolidin-1-yl)propan-2-yl)acetamide]		B* (the compound had a % inhibition of greater than or equal to about 3% but less than about 50%)
[2H][C@](O)(c1ccc2c(c1)OCCO2)[C@@H](CN1CCCC1)NC(=O)C(F)(F)c1cc2cc(Cl)ccc2o1 [Compound 57C, 2-(5-chlorobenzofuran-2-yl)-N-((1S,2R)-1-(2,3-dihydrobenzo[b][1,4]dioxin-6-yl)-1-deutero-1-hydroxy-3-(pyrrolidin-1-yl)propan-2-yl)-2,2-difluoroacetamide]		B* (the compound had a % inhibition of greater than or equal to about 3% but less than about 50%)
COc1ccc([C@H](O)[C@@H](CN2CCCC2)NC(=O)C(F)(F)c2cc3cc(Cl)ccc3o2)cc1C(F)F [Compound 59I, 2-(5-chlorobenzofuran-2-yl)-N-((1S,2R)-1-(3-(difluoromethyl)-4-methoxyphenyl)-1-hydroxy-3-(pyrrolidin-1-yl)propan-2-yl)-2,2-difluoroacetamide]		B* (the compound had a % inhibition of greater than or equal to about 3% but less than about 50%)
[2H]C([2H])(C(=O)N[C@H](CN1CCCC1)[C@H](O)c1ccc2c(c1)OCCO2)c1cc2cc(Cl)ccc2o1 [Compound 60, 2-(5-chlorobenzofuran-2-yl)-N-((1R,2R)-1-(2,3-dihydrobenzo[b][1,4]dioxin-6-yl)-1-hydroxy-3-(pyrrolidin-1-yl)propan-2-yl)-2,2-dideutero-acetamide]	< 50	
O=C(N[C@H](CN1CCCC1)[C@H](O)c1cc2c(cc1Br)OCCO2)C(F)(F)c1cc2cc(Cl)ccc2o1 [Compound 61, N-((1R,2R)-1-(7-bromo-2,3-dihydrobenzo[b][1,4]dioxin-6-yl)-1-hydroxy-3-(pyrrolidin-1-yl)propan-2-yl)-2-(5-chlorobenzofuran-2-yl)-2,2-difluoroacetamide]		B* (the compound had a % inhibition of greater than or equal to about 3% but less than about 50%)
CC1(C)CN(C[C@@H](NC(=O)C(F)(F)c2cc3cc(Cl)ccc3o2)[C@H](O)c2ccc3c(c2)OCCO3)C1 [Compound 62, 2-(5-chlorobenzofuran-2-yl)-N-((1R,2R)-1-(2,3-dihydrobenzo[b][1,4]dioxin-6-yl)-3-(3,3-dimethylazetidin-1-yl)-1-hydroxypropan-2-yl)-2,2-difluoroacetamide]		B* (the compound had a % inhibition of greater than or equal to about 3% but less than about 50%)
O=C(N[C@H](CN1CCCC1)[C@H](O)c1ccc2c(c1)OCCO2)C(F)(F)C1Cc2ccc(Cl)cc2C1 (stereo partly drawn) [Compound 63, 2-(5-chloro-2,3-dihydro-1H-inden-2-yl)-N-((1R,2R)-1-(2,3-dihydrobenzo[b][1,4]dioxin-6-yl)-1-hydroxy-3-(pyrrolidin-1-yl)propan-2-yl)-2,2-difluoroacetamide]	< 50	
O=C(N[C@H](CN1CCCC1)[C@H](O)c1ccc(OC2CC2)c(Cl)c1)C(F)(F)C1Cc2ccc(Cl)cc2C1 (stereo partly drawn) [Compound 67, 2-(5-chloro-2,3-dihydro-1H-inden-2-yl)-N-((1R,2R)-1-(3-chloro-4-cyclopropoxyphenyl)-1-hydroxy-3-(pyrrolidin-1-yl)propan-2-yl)-2,2-difluoroacetamide]	< 50	
O=C(N[C@H](CN1CCCC1)[C@H](O)c1cc2cc(Cl)ccc2o1)C(F)(F)c1cc2cc(Cl)ccc2o1 [Compound 68, 2-(5-chlorobenzofuran-2-yl)-N-((1S,2R)-1-(5-chlorobenzofuran-2-yl)-1-hydroxy-3-(pyrrolidin-1-yl)propan-2-yl)-2,2-difluoroacetamide]		B* (the compound had a % inhibition of greater than or equal to about 3% but less than about 50%)
O=C(N[C@H](CN1CCCC1)[C@@H](O)c1cc2cc(Cl)ccc2o1)C(F)(F)c1cc2cc(Cl)ccc2o1 [Compound 68G, 2-(5-chlorobenzofuran-2-yl)-N-((1R,2R)-1-(5-chlorobenzofuran-2-yl)-1-hydroxy-3-(pyrrolidin-1-yl)propan-2-yl)-2,2-difluoroacetamide]		B* (the compound had a % inhibition of greater than or equal to about 3% but less than about 50%)

Further lines, with some results ahead:

IC50 [nM]	Structure (SMILES)	% inhibition generated from Assay 1
50 to 5000	Cn1ncc2cc([C@@H](O)[C@@H](CN3CCCC3)NC(=O)C(F)(F)c3cc4cc(Cl)ccc4o3)ccc21 [Compound 49, 2-(5-chlorobenzofuran-2-yl)-2,2-difluoro-N-((1R,2R)-1-hydroxy-1-(1-methyl-1H-indazol-5-yl)-3-(pyrrolidin-1-yl)propan-2-yl)acetamide]	
< 50	COc1ccc([C@@H](O)[C@@H](CN2CCCC2)NC(=O)C(F)(F)c2cc3cc(Cl)ccc3o2)cn1 [Compound 56, 2-(5-chlorobenzofuran-2-yl)-2,2-difluoro-N-((1R,2R)-1-hydroxy-1-(6-methoxypyridin-3-yl)-3-(pyrrolidin-1-yl)propan-2-yl)acetamide]	
< 50	[2H][C@@](O)(c1ccc2c(c1)OCCO2)[C@@H](CN1CCCC1)NC(=O)C(F)(F)c1cc2cc(Cl)ccc2o1 [Compound 57, 2-(5-chlorobenzofuran-2-yl)-N-((1R,2R)-1-(2,3-dihydrobenzo[b][1,4]dioxin-6-yl)-1-deutero-1-hydroxy-3-(pyrrolidin-1-yl)propan-2-yl)-2,2-difluoroacetamide]	
< 50	O=C(N[C@H](CN1CCCC1)C(O)c1ccc2c(c1)OCCO2)C(F)(F)c1cc2cc(Cl)ccc2o1 (stereo partly drawn) [Compound 57B, N-[2-(2H,3H-benzo[e]1,4-dioxan-6-yl)(1R)-2-hydroxy-1-(pyrrolidinylmethyl)ethyl]-2-(5-chlorobenzo[d]furan-2-yl)-2,2-difluoroacetamide]	
50 to 5000	COc1ccc([C@@H](O)[C@@H](CN2CCCC2)NC(=O)C(F)(F)c2cc3cc(Cl)ccc3o2)cc1C(F)F [Compound 59, 2-(5-chlorobenzofuran-2-yl)-N-((1R,2R)-1-(3-(difluoromethyl)-4-methoxyphenyl)-1-hydroxy-3-(pyrrolidin-1-yl)propan-2-yl)-2,2-difluoroacetamide]	
< 50	O=C(N[C@H](CN1CCCC1)[C@H](O)c1cc(F)c2c(c1)OCCO2)C(F)(F)c1cc2cc(Cl)ccc2o1 [Compound 64, 2-(5-chlorobenzofuran-2-yl)-2,2-difluoro-N-((1R,2R)-1-(8-fluoro-2,3-dihydrobenzo[b][1,4]dioxin-6-yl)-1-hydroxy-3-(pyrrolidin-1-yl)propan-2-yl)acetamide]	
< 50	O=C(N[C@H](CN1CCCC1)[C@H](O)c1cc(Cl)c2c(c1)OCCO2)C(F)(F)c1cc2cc(Cl)ccc2o1 [Compound 65, N-((1R,2R)-1-(8-chloro-2,3-dihydrobenzo[b][1,4]dioxin-6-yl)-1-hydroxy-3-(pyrrolidin-1-yl)propan-2-yl)-2-(5-chlorobenzofuran-2-yl)-2,2-difluoroacetamide]	
< 50	CC1CN(C[C@@H](NC(=O)C(F)(F)c2cc3cc(Cl)ccc3o2)[C@H](O)c2ccc3c(c2)OCCO3)C1 [Compound 66, 2-(5-chlorobenzofuran-2-yl)-N-((1R,2R)-1-(2,3-dihydrobenzo[b][1,4]dioxin-6-yl)-1-hydroxy-3-(3-methylazetidin-1-yl)propan-2-yl)-2,2-difluoroacetamide]	
